Reference: ChEMBL document CHEMBL1128771 (Bioorg Med Chem Lett, 1995)
pIC50, pKi: −log10 of the molar value.

Key:
[1] = Ability to inhibit proliferation in human lymphocytes by mixed lymphocyte reaction (MLR); type: functional, cell-based
[2] = molecular target: Dihydroorotate dehydrogenase (quinone), mitochondrial (Homo sapiens, UniProt Q02127)
Chain of Dihydroorotate dehydrogenase (quinone), mitochondrial (Q02127 whole entry): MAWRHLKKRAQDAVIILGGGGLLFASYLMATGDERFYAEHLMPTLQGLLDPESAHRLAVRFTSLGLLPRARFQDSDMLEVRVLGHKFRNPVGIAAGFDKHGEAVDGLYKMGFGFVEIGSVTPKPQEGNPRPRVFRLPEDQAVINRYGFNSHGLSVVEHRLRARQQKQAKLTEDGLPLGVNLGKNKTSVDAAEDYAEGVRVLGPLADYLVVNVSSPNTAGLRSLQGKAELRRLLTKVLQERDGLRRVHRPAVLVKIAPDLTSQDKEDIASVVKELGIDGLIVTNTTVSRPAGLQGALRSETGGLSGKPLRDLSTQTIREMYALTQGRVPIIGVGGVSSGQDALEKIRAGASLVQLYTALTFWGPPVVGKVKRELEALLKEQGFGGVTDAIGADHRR
Description: Inhibition measurement of orotate formation from radiolabeled dihydroorotate, using partially purified DHODase isolated from human liver.

Row | SMILES | pKi [2] | pIC50 ([1]; Homo sapiens) | pIC50 [1]
1 | Cn1cnc2c(C(=O)O)cc(-c3ccc(-c4ccccc4)cc3)nc21 | < 6.30 | < 6.30 | –
2 | Cc1c(-c2ccc(-c3ccccc3F)cc2)nc2ncccc2c1C(=O)O | 6.68 | < 6.30 | –
3 | O=C(O)c1c2c(nc3ccc(F)cc13)-c1ccc(-c3ccccc3)cc1CC2 | 7.77 | 7.85 | –
4 | Cc1c(-c2ccc(-c3ccccc3F)cc2)nc2cccnc2c1C(=O)O | 6.30 | < 6.30 | –
5 | Cc1c(-c2cccc(Oc3ccccc3)c2)nc2ccc(F)cc2c1C(=O)O | 7.20 | < 6.30 | –
6 | Cc1c(-c2ccc(-c3ccccc3)cc2)nc2ccc(F)cc2c1C(N)=O | < 6.30 | < 6.30 | –
7 | CCCCCCc1ccc(-c2nc3ccc(F)cc3c(C(=O)O)c2C)cc1 | 7.22 | < 6.30 | –
8 | Cc1c(-c2ccc(Oc3ccccc3)cc2)nc2ccc(F)cc2c1C(=O)O | 7.54 | 6.30 | –
9 | CC(=O)Nc1ccc2nc(-c3ccc(-c4ccccc4)cc3)c(C)c(C(=O)O)c2c1 | < 6.30 | < 6.30 | –
10 | O=C(O)c1cc(-c2ccc(-c3ccccc3)cc2)nc2ocnc12 | < 6.30 | < 6.30 | –
11 | Cc1c(-c2ccc(-c3ccccc3)cc2)nc2ccc(F)cc2c1-n1cnnn1 | < 6.30 | < 6.30 | –
12 | COC(=O)c1ccc2nc(-c3ccc(-c4ccccc4)cc3)c(C)c(C(=O)O)c2c1 | < 6.30 | < 6.30 | –
13 | Cc1c(-c2ccc(-c3ccccc3)cc2)nc2ccc(F)cc2c1CO | < 6.30 | < 6.30 | –
14 | Cc1c(-c2ccc(-c3cccnc3)cc2)nc2ccc(F)cc2c1C(=O)O | 6.70 | < 6.30 | –
15 | Cc1c(CCCCc2ccccc2)nc2ccc(F)cc2c1C(=O)O | < 6.30 | < 6.30 | –
16 | Cc1c(-c2ccc(-c3ccccc3)cc2)nc2ccc(F)cc2c1O | < 6.30 | < 6.30 | –
17 | Cc1c(-c2ccc(C3CCCCC3)cc2)nc2ccc(F)cc2c1C(=O)O | 7.55 | 7.60 | –
18 | Cc1c(-c2cccc(-c3ccccc3)c2)nc2ccc(F)cc2c1C(=O)O | < 6.30 | < 6.30 | –
19 | Cc1c(-c2ccc(-c3ccccc3)cc2)nc2ccccc2c1C(=O)O | – | – | 6.74
20 | Cc1c(-c2ccc(-c3ccccc3F)cc2)nc2cnccc2c1C(=O)O | 7.32 | 6.54 | –
21 | Cc1c(-c2ccc(C(C)(C)C)cc2)nc2ccc(F)cc2c1C(=O)O | 7.40 | 6.40 | –
22 | O=C(O)c1c(O)c(-c2ccc(-c3ccccc3)cc2)nc2ccc(F)cc12 | – | < 6.30 | –
23 | Cc1c(-c2ccc(-c3cccs3)cc2)nc2ccc(F)cc2c1C(=O)O | 7.25 | 6.46 | –
24 | Cc1c(-c2ccc(-c3ccccc3)cc2)nc2ccc(O)cc2c1C(=O)O | < 6.30 | < 6.30 | –
25 | Cc1c(-c2ccccc2)nc2ccc(F)cc2c1C(=O)O | < 6.30 | < 6.30 | –
26 | Cc1c(-c2cccc3ccccc23)nc2ccc(F)cc2c1C(=O)O | < 6.30 | < 6.30 | –
27 | Cc1c(-c2ccc(-c3ccccc3F)cc2)nc2nc[nH]c2c1C(=O)O | < 6.30 | < 6.30 | –
28 | Cc1c(-c2ccc(-c3ccccc3F)cc2)nc2ccc(F)cc2c1C(=O)O [BREQUINAR] | – | – | 7.82

Second part, led by results:

Row | pKi [2] | SMILES | pIC50 ([1]; Homo sapiens) | pIC50 [1]
29 | < 6.30 | Cc1c(-c2ccc(-n3ccnc3)cc2)nc2ccc(F)cc2c1C(=O)O | < 6.30 | –
30 | < 6.30 | CC(=O)OCc1c(C)c(-c2ccc(-c3ccccc3)cc2)nc2ccc(F)cc12 | < 6.30 | –
31 | 6.41 | Cc1c(-c2ccc(-c3ccccc3)s2)nc2ccc(F)cc2c1C(=O)O | < 6.30 | –
32 | 6.52 | Cc1c(-c2ccc3ccccc3c2)nc2ccc(F)cc2c1C(=O)O | < 6.30 | –
33 | 8.00 | Cc1ccc2nc(-c3ccc(-c4ccccc4)cc3)c(C)c(C(=O)O)c2c1 | 6.42 | –
34 | 7.52 | CCc1c(-c2ccc(-c3ccccc3)cc2)nc2ccc(F)cc2c1C(=O)O | 6.68 | –
35 | 7.42 | Cc1c(-c2ccc(-c3ccc(Br)cc3)cc2)nc2ccc(F)cc2c1C(=O)O | < 6.30 | –
36 | 7.62 | Cc1ccc(-c2ccc(-c3nc4ccc(F)cc4c(C(=O)O)c3C)cc2)cc1 | 6.82 | –
37 | 6.40 | COC(=O)c1c(C)c(-c2ccc(-c3ccccc3)cc2)nc2ccc(F)cc12 | < 6.30 | –
38 | 6.64 | Cc1c(-c2ccc(-c3ccc(C(F)(F)F)cc3)cc2)nc2ccc(F)cc2c1C(=O)O | < 6.30 | –
39 | 6.85 | Cc1c(-c2ccc(-c3ccc(Cl)cc3)cc2)nc2ccc(F)cc2c1C(=O)O | < 6.30 | –
40 | 6.68 | O=C(O)c1cc(-c2ccc(-c3ccccc3)cc2)nc2sccc12 | < 6.30 | –
41 | 8.08 | Cc1c(-c2ccc(-c3ccccc3)cc2)nc2ccc(C(F)(F)F)cc2c1C(=O)O | 8.15 | –
42 | 7.30 | Cc1c(-c2ccc(-c3cccc(F)c3)cc2)nc2ccc(F)cc2c1C(=O)O | 7.70 | –
43 | 7.70 | Cc1c(-c2ccc(-c3ccccc3)cc2)nc2ccc(Cl)cc2c1C(=O)O | 7.46 | –
44 | 8.00 | O=C(O)c1cc(-c2ccc(-c3ccccc3)cc2)nc2ccc(F)cc12 | 6.82 | –
45 | 6.68 | Cc1c(-c2ccc(-c3ccc(F)cc3)cc2)nc2ccc(F)cc2c1C(=O)O | 6.59 | –
46 | 6.38 | Cc1c(-c2ccc(-c3ccccc3F)cc2)nc2ccncc2c1C(=O)O | < 6.30 | –
47 | 7.89 | CSc1c(-c2ccc(-c3ccccc3)cc2)nc2ccc(F)cc2c1C(=O)O | 7.74 | –
48 | 7.89 | COc1c(-c2ccc(-c3ccccc3)cc2)nc2ccc(F)cc2c1C(=O)O | 6.60 | –
49 | 6.82 | Cc1c(-c2ccc(-c3ccccc3)cc2)nc2c(Cl)cccc2c1C(=O)O | < 6.30 | –
50 | 6.66 | Cc1c(-c2ccc(-c3ccccc3)cc2)nc2cc(Cl)ccc2c1C(=O)O | < 6.30 | –
51 | 7.60 | Cc1c(-c2ccc(-c3ccccc3)cc2)nc2cccc(Cl)c2c1C(=O)O | 6.82 | –
52 | 6.57 | CSc1ccc2nc(-c3ccc(-c4ccccc4)cc3)c(C)c(C(=O)O)c2c1 | < 6.30 | –
53 | 7.96 | Cc1c(-c2ccc(-c3ccc(O)cc3F)cc2)nc2ccc(F)cc2c1C(=O)O | 6.52 | –
